Laboratory results as given in paper PMC11505038, “Kalata B1 Enhances Temozolomide Toxicity to Glioblastoma Cells” (Biomedicines, 2024).
Where a SMILES comes first, the peptide text is derived from it. Bridges are numbered along the chain shown (N, C = ends).

Legend:
[1] = system: U-87 MG human glioblastoma cells; assay: cells; conditions: read-out: IC50 (μM) ± S.D.; U-87 MG, MTT, 72 h, 6000 cells/well, cyclotides 0.1-10 μM, TMZ 0.5-5000 μM, best fit nonlinear regression, triplicate wells, n = 3
Procedure: SH-SY5Y human neuroblastoma cells (population doubling (PD) 20−24), T-98G, and U-87 MG human glioblastoma cells were removed from cryogenic storage, thawed rapidly in a water bath (37 °C) and reconstituted in 75 cm^2 flasks. For SH-SY5Y, the following media were used: Dulbecco’s modified Eagle’s medium/Nutrient F12 Ham (Sigma-Aldrich, Cat. No. D8437) containing 10% heat-inactivated fetal bovine serum, 4 mM L-glutamine, 100 U/mL penicillin, and 100 μg/mL streptomycin. For U-87 MG and T-98G Eagle’s minimal essential medium (ATCC: The Global Bioresource Center, Cat. No. ATCC 30-2003), containing 10% heat-inactivated fetal bovine serum, 4 mM L-glutamine, 100 U/mL penicillin, and 100 μg/mL streptomycin were used.
Cells were incubated at 37 °C in a humidified atmosphere of 5% CO2 and 95% air until recovered and ready for passaging (approximately 4 days). At between 80% and 90% confluence, the cells were trypsinized with warm (37 °C) sterile 0.5% Trypsin-EDTA (Thermo Fisher, Cat. No. 15400054) and passaged into 175 cm^2 flasks, where they were left to multiply until they reached 80−90% confluence. To plate cells: cultures were trypsinized, resuspended in 20 mL sterile PBS, counted using a cell counter (Olympus cell counter model R1), and plated in 96-well plates at an optimal density of 6000 cells/well in the designated culture media. The cells were left to adhere overnight before treatment the following day, when the culture medium was removed and replaced with the treatment medium. All incubations were conducted in triplicate wells and repeated at least three times (n = 3).
To calculate TMZ IC50 values in each cell line, TMZ was dissolved in DMSO at a stock concentration of 103 mM, which was then diluted into culture medium on the day of use, with the DMSO final concentration always less than 0.1%. The following concentrations of TMZ were used in the experiments: 0.5, 5, 50, 500, 2500, 5000 μM. The media were sterilized for each treatment media with a 0.22 μm filter before they were added to cell cultures. To determine the IC50 values for each cyclotide in each cell type, cyclotides were dissolved into 10% DMSO and then dilutions used to screen cyclotides with a final DMSO concentration of less than 0.1% The following concentrations of cyclotides were used: 0.1, 1, 5, 10 μM. For co-exposure experiments, a simultaneous exposure of cyclotide and TMZ at each respective dose was added to cell cultures (100 μL final volume per well).
In accordance with the methods developed by Mosmann and colleagues, the MTT assay was conducted using the Roche cell proliferation kit (Cat. No. 11465007001). Briefly, cells that are active can cleave MTT. The MTT is originally a yellow tetrazolium salt that undergoes a colorimetric change to purple formazan crystals, and the change in absorbance can be measured as an indicator of cell viability/proliferation. For these experiments, cells were plated into 96-well flat-bottom plates, as described in the cell culture above. […] To align with our previous work, experiments were conducted with a 72 h time frame for cytotoxicity evaluation.
After a 72 h incubation period, plates were removed from the incubator and 10 µL of MTT was added to each well. The plates were returned to the incubator for an additional 4 h, after which 100 µL of a solubilization solution was added to each well. The plates were returned to incubation overnight, and the next day absorbances were read at 570 nm on a Molecular Devices FlexStation 3 using SoftMax Pro Microplate Data Acquisition and Analysis Software (version 7.0.2).

[2] = Human serum stability assay (UPLC-MS); conditions: data points of 3 h, 8 h and 24 h; human serum from male AB plasma, 300 µM stock diluted 10 times, 37 °C, UPLC-MS peak area vs control, triplicate
Procedure: Established protocols were used to analyze peptide stability in human serum isolated from male AB plasma (Sigma-Aldrich). Briefly, thawed plasma was centrifuged for 10 min at 15,000× g to concentrate lipids. The supernatant was carefully removed with a Pasteur pipette and incubated for 15 min at 37 °C, 5% CO2. […] Controls were synthetic Kalata B1 or TMZ in PBS that were incubated in parallel with human serum test compounds. Serum proteins were denatured with urea (final concentration of 3M) at 4 °C for 10 min., at each time point. Afterwards, trichloroacetic acid (7% final v/v) was added for 10 min to precipitate the proteins. Each sample was centrifuged for 10 min at 15,000× g; the supernatant was removed an evaluated in triplicate using UPLC-MS.
We conducted peptide stability assays in human serum isolated from male AB plasma and then analyzed with UPLC-MS. Synthetic Kalata B1 and TMZ were incubated with human serum and the portion of the peptide remaining was quantified by calculating the area of the respective elution peak in UPLC-MS, compared to the control.
Percentage of Kalata B1 and TMZ remaining upon incubation with human serum. The portion of serum-treated peptide remaining was determined by calculating the area of the respective elution peak in UPLC-MS and comparing it with the control without incubation. Data points are means ± SEM.

[3] = cited from earlier work
Source text: One of our objectives is to promote research that investigates methods to decrease the required concentrations of drugs such as TMZ for efficacy in vivo. Therefore, it is important to analyze the stability of cyclotides in human serum. The trypsin inhibitor cyclotide, MCoTI-II, has been extracted from the seeds of Momordica cochinchinensis Spreng. [Cucurbitaceae]. […] Huang and colleagues repeated these experiments with MCoTI-II and an ...

glioblastoma cells = conditions: cited from earlier work
U-87 MG cells = conditions: cited from earlier work

Question: With `CC[C@H](C)[C@@H]1NC(=O)[C@H](C)NC(=O)[C@H](CO)NC(=O)[C@H]([C@@H](C)O)NC(=O)[C@H](CC(C)C)NC(=O)[C@@H]2CSSC[C@@H]3NC(=O)[C@H](C(C)C)NC(=O)[C@H](CCCCN)NC(=O)[C@H](CO)NC(=O)[C@H](CCCCN)NC(=O)[C@@H]4CSSC[C@H](NC(=O)[C@H](CO)NC(=O)[C@H](CCC(=O)O)NC(=O)CNC(=O)[C@H](CSSC[C@H](NC(=O)CNC1=O)C(=O)N[C@@H](CO)C(=O)N4)NC(=O)[C@@H]1CCCN1C(=O)[C@H]([C@@H](C)CC)NC(=O)CNC(=O)[C@H](CC(N)=O)NC(=O)[C@H](CCCNC(=N)N)NC(=O)[C@H](Cc1ccc(O)cc1)NC3=O)C(=O)N[C@@H](C(C)C)C(=O)N[C@@H](Cc1c[nH]c3ccccc13)C(=O)N[C@@H]([C@@H](C)CC)C(=O)N1CCC[C@H]1C(=O)N2` [CyO3, Cycloviolacin O3] (cyclo(AIGCSCKSKVCYRNGIPCGESCVWIPCLTS); disulfide 4-18, 6-22, 11-27) as the compound, how does the IC50 [1] read?
Answer: 2.6 ± 0.05 µM

Question: With `CC[C@H](C)[C@@H]1NC(=O)[C@@H]2CSSC[C@@H]3NC(=O)[C@H](C(C)C)NC(=O)[C@H](CCCCN)NC(=O)[C@H](CO)NC(=O)[C@H](CCCCN)NC(=O)[C@@H]4CSSC[C@H](NC(=O)[C@H](CO)NC(=O)[C@H](CCC(=O)O)NC(=O)CNC(=O)[C@H](CSSC[C@H](NC(=O)CNC(=O)[C@H](C(C)C)NC(=O)[C@H](C(C)C)NC(=O)[C@H](CO)NC(=O)[C@H](CO)NC1=O)C(=O)N[C@@H](CO)C(=O)N4)NC(=O)[C@@H]1CCCN1C(=O)[C@H](CC(C)C)NC(=O)[C@H]([C@@H](C)O)NC(=O)CNC(=O)[C@H](CC(=O)O)NC(=O)[C@H](CCCCN)NC(=O)[C@H](Cc1ccc(O)cc1)NC3=O)C(=O)N[C@@H](C(C)C)C(=O)N[C@@H](Cc1c[nH]c3ccccc13)C(=O)N[C@@H]([C@@H](C)CC)C(=O)N1CCC[C@H]1C(=O)N2` [CyO19, Cycloviolacin O19] (cyclo(CGESCVWIPCISSVVGCSCKSKVCYKDGTLP); disulfide 1-17, 5-19, 10-24) as the compound, how does the IC50 [1] read?
Answer: 2.4 ± 0.07 µM

Question: For `CC(C)C[C@@H]1NC(=O)CNC(=O)[C@H](CC(N)=O)NC(=O)[C@H](CCCNC(=N)N)NC(=O)[C@H]([C@@H](C)O)NC(=O)[C@@H]2CSSC[C@@H]3NC(=O)[C@H]([C@@H](C)O)NC(=O)CNC(=O)CNC(=O)[C@H](C(C)C)NC(=O)[C@@H]4CSSC[C@H](NC(=O)[C@H]([C@@H](C)O)NC(=O)[C@H](CSSC[C@H](NC(=O)[C@H](C(C)C)NC(=O)[C@@H]5CCCN5C1=O)C(=O)NCC(=O)N[C@@H](CCC(=O)O)C(=O)N[C@@H]([C@@H](C)O)C(=O)N4)NC(=O)CNC(=O)[C@@H]1CCCN1C(=O)[C@H]([C@@H](C)O)NC(=O)[C@H](CC(N)=O)NC3=O)C(=O)N[C@@H](CO)C(=O)N[C@@H](Cc1c[nH]c3ccccc13)C(=O)N1CCC[C@H]1C(=O)N[C@@H](C(C)C)C(=O)N2` [Kalata B1], which “Stability in human serum (in words)” value [2] is on record?
Answer: remained stable

Question: With `CC(C)C[C@@H]1NC(=O)CNC(=O)[C@H](CC(N)=O)NC(=O)[C@H](CCCNC(=N)N)NC(=O)[C@H](Cc2ccccc2)NC(=O)[C@@H]2CSSC[C@@H]3NC(=O)[C@H]([C@@H](C)O)NC(=O)CNC(=O)CNC(=O)[C@H](C(C)C)NC(=O)[C@@H]4CSSC[C@H](NC(=O)[C@H](CO)NC(=O)[C@H](CSSC[C@H](NC(=O)[C@H](C(C)C)NC(=O)[C@@H]5CCCN5C1=O)C(=O)NCC(=O)N[C@@H](CCC(=O)O)C(=O)N[C@@H]([C@@H](C)O)C(=O)N4)NC(=O)CNC(=O)[C@@H]1CCCN1C(=O)[C@H]([C@@H](C)O)NC(=O)[C@H](CC(N)=O)NC3=O)C(=O)N[C@@H](CO)C(=O)N[C@@H](Cc1c[nH]c3ccccc13)C(=O)N1CCC[C@H]1C(=O)N[C@@H](C(C)C)C(=O)N2` [Vitri E] as the compound, how does the IC50 [1] read?
Answer: 21.1 ± 2.9 µM

Question: Which “Peptide remaining in human serum” value ([3]; 24 h) does the source give for “MCoTI-II: trypsin inhibitor cyclotide extracted from the seeds of Momordica cochinchinensis; three-disulfide peptide (cyclo(SGSDGGVCPKILKKCRRDSDCPGACICRGNGYCG); disulfide (positions not given here); also: three disulfides, pairing not given here; UniProt P82409 1-34, looked up)” here?
Answer: 100%

Question: What about the “Time for which the peptide remained stable in human serum” value [3] of the same compound?
Answer: at least 24 h

Question: What does the source list for Varv peptide A?
Answer: IC50 (glioblastoma cells): 2.91 µM; Fold less TMZ required for significant cell death on co-exposure with the cyclotide (U-87 MG cells): 2 fold
